PMC8667902 (Journal of Enzyme Inhibition and Medicinal Chemistry, 2021)
Values joined by “and” are separate entries in the source; they are usually repeats but may differ in a detail not shown here. Equal values may be shown once. Read-outs that look alike come from different tables or passages of the source.

Assays:
[1] = target: ratBuChE (Rattus norvegicus, UniProt Q9JKC1); assay: Ellman's method, BuChE from rat serum; format: biochemical
[2] = target: T1, huMAO-A (Homo sapiens, UniProt P21397); assay: huMAO-A inhibition, fluorescence method; format: biochemical; details: for inhibition at 10 µM: read-out: MAO-A percent inhibition rate
T1 sequence (P21397 1-527): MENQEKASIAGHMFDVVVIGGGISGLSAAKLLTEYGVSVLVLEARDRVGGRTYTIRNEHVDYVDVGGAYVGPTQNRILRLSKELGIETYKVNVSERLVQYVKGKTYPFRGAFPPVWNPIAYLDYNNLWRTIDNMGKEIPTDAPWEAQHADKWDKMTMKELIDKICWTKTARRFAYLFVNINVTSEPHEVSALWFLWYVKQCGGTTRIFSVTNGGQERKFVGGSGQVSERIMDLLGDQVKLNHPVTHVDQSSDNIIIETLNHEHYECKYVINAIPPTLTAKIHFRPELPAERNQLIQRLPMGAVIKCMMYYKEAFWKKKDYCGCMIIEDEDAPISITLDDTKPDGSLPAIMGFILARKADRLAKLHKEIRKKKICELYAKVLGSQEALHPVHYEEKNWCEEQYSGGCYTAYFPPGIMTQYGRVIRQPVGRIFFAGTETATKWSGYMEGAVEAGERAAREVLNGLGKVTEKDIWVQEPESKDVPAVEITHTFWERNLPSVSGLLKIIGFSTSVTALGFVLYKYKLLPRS

[3] = target: T2, Aβ1–42 (Homo sapiens, UniProt P05067); assay: Inhibition of self-induced Aβ1–42 aggregation; format: biochemical; details: ThT assay; for inhibition at 25 µM: read-out: Inhibition of Aβ1–42 aggregation (%) Self-induced, 25 μM
[4] = Oxygen Radicals Absorbance Capacity by Fluorescence; details: for ORAC: Trolox as reference; for ORAC-FL value: Trolox equivalents
[5] = target: T3, ratAChE (Rattus norvegicus, UniProt P37136); assay: Ellman's method, AChE from rat cortex homogenate; format: biochemical; details: for SI = Selectivity index = IC50 (BuChE)/IC50 (AChE): ratBuChE over rat AChE
T3 sequence (P37136 32-614): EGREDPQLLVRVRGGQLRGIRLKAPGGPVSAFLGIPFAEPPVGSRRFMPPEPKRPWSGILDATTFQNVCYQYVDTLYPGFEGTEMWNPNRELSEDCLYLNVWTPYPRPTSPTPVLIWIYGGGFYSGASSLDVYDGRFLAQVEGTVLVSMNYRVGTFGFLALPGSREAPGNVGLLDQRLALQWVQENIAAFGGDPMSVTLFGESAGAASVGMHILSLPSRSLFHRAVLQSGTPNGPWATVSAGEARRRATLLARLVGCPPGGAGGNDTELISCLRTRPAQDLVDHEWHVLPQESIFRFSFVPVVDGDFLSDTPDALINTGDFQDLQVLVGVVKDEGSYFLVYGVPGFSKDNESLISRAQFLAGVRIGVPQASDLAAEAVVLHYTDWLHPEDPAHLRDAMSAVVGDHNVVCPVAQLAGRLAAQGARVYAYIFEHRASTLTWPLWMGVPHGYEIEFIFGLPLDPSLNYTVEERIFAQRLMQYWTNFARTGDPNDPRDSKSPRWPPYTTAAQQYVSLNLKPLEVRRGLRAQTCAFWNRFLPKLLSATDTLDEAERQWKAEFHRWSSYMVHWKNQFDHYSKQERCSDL

[6] = target: eeAChE (Electrophorus electricus, UniProt O42275); assay: Ellman's method, electric eel AChE; format: biochemical
[7] = target: T2, Aβ1–42; assay: Inhibition of Cu2+-induced Aβ1–42 aggregation; format: biochemical; details: read-out: Inhibition of Aβ1–42 aggregation (%) Cu^2+-induced
[8] = target: T4, Aβ1–42 fibrils (Homo sapiens, UniProt P05067); assay: Disaggregation of Cu2+-induced Aβ1–42 aggregation; format: biochemical
[9] = target: T5, huMAO-B (Homo sapiens, UniProt P27338); assay: biochemical
T5 sequence (P27338 1-520): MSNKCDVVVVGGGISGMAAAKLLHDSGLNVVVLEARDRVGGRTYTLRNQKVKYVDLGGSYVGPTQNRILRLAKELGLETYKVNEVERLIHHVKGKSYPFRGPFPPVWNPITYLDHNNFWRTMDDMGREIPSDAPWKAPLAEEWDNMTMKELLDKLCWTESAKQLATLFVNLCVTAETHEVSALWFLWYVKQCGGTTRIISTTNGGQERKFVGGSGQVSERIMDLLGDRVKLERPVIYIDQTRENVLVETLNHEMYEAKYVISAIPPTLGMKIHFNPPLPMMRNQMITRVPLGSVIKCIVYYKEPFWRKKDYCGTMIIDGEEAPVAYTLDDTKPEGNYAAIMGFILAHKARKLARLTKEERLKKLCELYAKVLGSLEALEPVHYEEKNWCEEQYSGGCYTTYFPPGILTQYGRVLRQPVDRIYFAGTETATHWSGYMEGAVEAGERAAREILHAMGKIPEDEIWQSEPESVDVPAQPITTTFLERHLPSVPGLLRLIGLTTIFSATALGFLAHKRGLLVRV

[10] = target: T4, Aβ1–42 fibrils; assay: Disaggregation of self-induced Aβ1–42 aggregation; format: biochemical; details: 25 μM; ThT assay

Sequence of ratBuChE (Q9JKC1 24-597): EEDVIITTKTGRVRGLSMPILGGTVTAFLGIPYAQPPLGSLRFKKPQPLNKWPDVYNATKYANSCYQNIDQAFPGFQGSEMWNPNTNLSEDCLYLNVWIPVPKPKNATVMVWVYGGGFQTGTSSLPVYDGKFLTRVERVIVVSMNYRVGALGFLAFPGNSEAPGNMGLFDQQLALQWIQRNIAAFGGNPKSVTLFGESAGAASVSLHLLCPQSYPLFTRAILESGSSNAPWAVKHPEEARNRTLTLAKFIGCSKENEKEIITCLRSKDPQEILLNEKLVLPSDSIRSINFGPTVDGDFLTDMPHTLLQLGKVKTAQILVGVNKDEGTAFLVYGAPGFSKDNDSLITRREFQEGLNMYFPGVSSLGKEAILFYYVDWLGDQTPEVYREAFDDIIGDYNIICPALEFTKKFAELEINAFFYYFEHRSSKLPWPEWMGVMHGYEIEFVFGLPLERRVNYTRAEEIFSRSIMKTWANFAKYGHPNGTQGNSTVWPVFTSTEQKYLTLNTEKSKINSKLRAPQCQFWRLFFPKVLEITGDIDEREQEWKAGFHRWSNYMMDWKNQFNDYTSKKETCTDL
Sequence of eeAChE (O42275 24-633): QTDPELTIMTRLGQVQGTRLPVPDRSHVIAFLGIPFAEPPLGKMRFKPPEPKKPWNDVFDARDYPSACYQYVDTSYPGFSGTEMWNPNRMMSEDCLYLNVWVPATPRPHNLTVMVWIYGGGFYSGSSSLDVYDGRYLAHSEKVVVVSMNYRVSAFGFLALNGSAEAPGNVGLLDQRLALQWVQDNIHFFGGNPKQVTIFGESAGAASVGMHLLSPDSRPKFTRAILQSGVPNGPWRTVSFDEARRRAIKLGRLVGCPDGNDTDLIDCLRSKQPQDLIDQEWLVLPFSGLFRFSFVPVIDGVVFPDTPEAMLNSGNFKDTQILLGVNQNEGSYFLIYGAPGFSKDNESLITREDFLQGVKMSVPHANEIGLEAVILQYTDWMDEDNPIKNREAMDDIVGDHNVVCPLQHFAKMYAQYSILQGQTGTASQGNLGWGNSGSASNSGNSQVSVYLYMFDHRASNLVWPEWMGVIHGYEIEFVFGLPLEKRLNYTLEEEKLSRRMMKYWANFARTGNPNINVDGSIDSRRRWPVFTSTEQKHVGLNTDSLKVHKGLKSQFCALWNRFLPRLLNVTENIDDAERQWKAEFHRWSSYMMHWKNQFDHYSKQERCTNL
T4 sequence (P05067 672-713): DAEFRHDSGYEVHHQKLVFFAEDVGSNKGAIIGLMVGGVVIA
T2 sequence (P05067 672-713): as above

SMILES	IC50 [1] [µM]	inhibition at 10 µM [2] [%]	inhibition at 25 µM [3] [%]	ORAC [4]	ORAC-FL value [4] [eq]	IC50 [5] [µM]	IC50 [6] [µM]	inhibition at 25 µM [7] [%]	Disaggregation of Aβ1–42 aggregation (%) Cu^2+-induced ([8]; 25 μM, ThT assay)	IC50 [9] [µM]	Disaggregation of Aβ1–42 aggregation (%) Self-induced [10] [%]	SI = Selectivity index = IC50 (BuChE)/IC50 (AChE) [5]	IC50 [2] [µM]	SI = selectivity index = IC50 (hMAO-A)/IC50 (hMAO-B) [9]	inhibition at 10 µM ([9]; read-out: MAO-B percent inhibition rate) [%]	Disaggregation of Aβ1–42 aggregation (%) Cu^2+-induced [8] [%]	Inhibition of Aβ1–42 aggregation (%) Self-induced ([3]; 25 μM)
COc1cc(O)c(C(=O)/C=C/c2ccc(O)cc2)c(OC)c1OC [Compound 8, (E)-1-(6-hydroxy-2,3,4-trimethoxyphenyl)-3-(4-hydroxyphenyl)-2-propen-1-one]	> 500	22.9	23.1 ± 0.01	5.4 ± 0.01 μM of Trolox equivalent/μM of compounds	5.4	> 500	> 500	33.2 ± 0.01									
COc1ccccc1CN(C)CCCOc1ccc(/C=C/C(=O)c2c(O)cc(OC)c(OC)c2OC)cc1 [Compound 9a, (E)-1-(6-Hydroxy-2,3,4-trimethoxyphenyl)-3-(4-(3-((2-methoxybenzyl)(methyl)amino)propoxy)phenyl)prop-2-en-1-one]	> 500	13.9	57.4 ± 0.01	1.01 ± 0.01 μM of Trolox equivalent/μM of compounds		3.12 ± 0.02	1.46 ± 0.02	66.2 ± 0.02	54.2 ± 0.02%	3.8 ± 0.02	26.8 ± 0.02	>160.3					
CCN(CCCOc1ccc(/C=C/C(=O)c2c(O)cc(OC)c(OC)c2OC)cc1)Cc1ccccc1OC [Compound 9b, (E)-3-(4-(3-(ethyl(2-methoxybenzyl)amino)propoxy)phenyl)-1-(6-hydroxy-2,3,4-trimethoxyphenyl)prop-2-en-1-one]	> 500		63.4 ± 0.03	0.93 ± 0.01 μM of Trolox equivalent/μM of compounds		0.67 ± 0.01	1.62 ± 0.01	71.6 ± 0.01	55.1 ± 0.22%	8.1 ± 0.03	22.2 ± 0.03	>746.3	19.8 ± 0.22	2.4			
COc1ccccc1CN(C)CCCCOc1ccc(/C=C/C(=O)c2c(O)cc(OC)c(OC)c2OC)cc1 [Compound 9c, (E)-1-(6-hydroxy-2,3,4-trimethoxyphenyl)-3-(4-(4-((2-methoxybenzyl)(methyl)amino)butoxy)phenyl)prop-2-en-1-one]	> 500		65 ± 0.01	0.97 ± 0.01 μM of Trolox equivalent/μM of compounds		1.77 ± 0.01	1.5 ± 0.02	74.1 ± 0.02	66.6 ± 0.36%	23.6 ± 0.12	45.7 ± 0.12	>282.5	35.7 ± 0.36	1.5			
COc1ccccc1CN(C)CCCCCCOc1ccc(/C=C/C(=O)c2c(O)cc(OC)c(OC)c2OC)cc1 [Compound 9e, (E)-1-(6-hydroxy-2,3,4-trimethoxyphenyl)-3-(4-(6-((2-methoxybenzyl)(methyl)amino)hexyloxy)phenyl)prop-2-en-1-one]	> 500		65.3 ± 0.02	0.99 ± 0.02 μM of Trolox equivalent/μM of compounds		1.68 ± 0.01	1 ± 0.03	76.2 ± 0.04	77.0 ± 0.57%	2.5 ± 0.01	58.2 ± 0.01	>297.6	37.8 ± 0.57	15.1			
CCN(CCCCCCOc1ccc(/C=C/C(=O)c2c(O)cc(OC)c(OC)c2OC)cc1)Cc1ccccc1OC [Compound 9f, (E)-3-(4-(6-(ethyl(2-methoxybenzyl)amino)hexyloxy)phenyl)-1-(6-hydroxy-2,3,4-trimethoxyphenyl)prop-2-en-1-one]	> 500		69 ± 0.01	0.96 ± 0.01 μM of Trolox equivalent/μM of compounds		0.61 ± 0.01	1.78 ± 0.02	75 ± 0.02	81.4 ± 0.68%	7.2 ± 0.03	62.8 ± 0.03	>819.7	43.6 ± 0.68	6.1			
CCN(CC)CCCCOc1ccc(/C=C/C(=O)c2c(O)cc(OC)c(OC)c2OC)cc1 [Compound 10, (E)-3-(4-(4-(diethylamino)butoxy)phenyl)-1-(6-hydroxy-2,3,4-trimethoxyphenyl)prop-2-en-1-one]	> 500		37.7 ± 0.02	1.02 ± 0.01 μM of Trolox equivalent/μM of compounds		4.94 ± 0.02	2.72 ± 0.02	49.4 ± 0.02	26.2% and 26.2 ± 0.28%	14.6 ± 0.03	25.6 ± 0.03	>101.2	27.9 ± 0.28	1.9			
COc1cc(O)c(C(=O)/C=C/c2ccc(O)cc2)c(OC)c1O [Compound 16, 3′,4,6′-Trihydroxy-2′,4′-dimethoxy-chalcone]	> 500		27.7 ± 0.02	7.8 ± 0.01 μM of Trolox equivalent/μM of compounds	7.8	> 500	> 500	38.1 ± 0.01					15.4 ± 0.16				
COc1ccccc1CN(C)CCCOc1ccc(/C=C/C(=O)c2c(O)cc(OC)c(O)c2OC)cc1 [Compound 17a, (E)-1-(3,6-dihydroxy-2,4-dimethoxyphenyl)-3-(4-(3-((2-methoxybenzyl)(methyl)amino)propoxy)phenyl)prop-2-en-1-one]	326 ± 10.7	18.2	67.4 ± 0.04	3.1 ± 0.02 μM of Trolox equivalent/μM of compounds		3.45 ± 0.03	2.3 ± 0.01	91.1 ± 0.01	84.6 ± 0.03%		29.9 ± 0.03	94.5			4.4		
COc1cc(/C=C/C(=O)CC(=O)/C=C/c2ccc(O)c(OC)c2)ccc1O [Curcumin, reference compound]			47.3 ± 0.01					76.5 ± 0.02								56.5 ± 0.21	
COc1cc2c(cc1OC)C(=O)C(CC1CCN(Cc3ccccc3)CC1)C2 (stereo not shown) [Donepezil, reference compound]			< 5														n.a.^g (no active, meaning inhibition rate was <5.0% at 25 μM)
